We go through five compounds from ChEMBL document CHEMBL1201862, “PubChem BioAssay data set” (2004).

The nature of assay [1]: Fluorescence-based cell-based high throughput dose response assay for inhibitors of the interaction of nucleotide-binding oligomerization domain containing 2 (NOD2) and the receptor-interacting serine-threonine kinase 2 (RIPK2). Conditions: Homo sapiens. It is filed as functional.
The target in assay [2] is Delta-type opioid receptor (Homo sapiens, UniProt P41143). The assay is described as follows: HTS Image-Based Screen for Antagonists of the DOR Receptor. [Related pubchem assays (depositor defined):AID1777, AID1785, AID1786, AID2133]. It is filed as functional.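 Further: U2OS cells expressing DOR stimulated with 100 nM SNC80 agonist.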
Assay [3] concerns the target T1, Type-1 angiotensin II receptor (Homo sapiens, UniProt P30556).
T1 sequence (P30556 whole entry): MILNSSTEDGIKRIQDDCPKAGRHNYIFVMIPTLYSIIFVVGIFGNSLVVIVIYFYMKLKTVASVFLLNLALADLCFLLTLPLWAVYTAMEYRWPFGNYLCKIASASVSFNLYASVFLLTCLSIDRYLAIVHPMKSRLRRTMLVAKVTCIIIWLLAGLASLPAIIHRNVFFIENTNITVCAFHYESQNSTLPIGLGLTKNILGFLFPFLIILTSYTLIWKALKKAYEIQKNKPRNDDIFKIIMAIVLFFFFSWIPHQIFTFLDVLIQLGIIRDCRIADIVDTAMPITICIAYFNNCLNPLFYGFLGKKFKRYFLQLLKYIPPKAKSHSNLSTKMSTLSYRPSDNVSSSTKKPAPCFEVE
Kind of assay: antagonism of angiotensin II type 1 receptor – cell-based, uHTS hits, selectivity assay for APJ receptor antagonist project, dose response (AID 463214).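 Further: antagonist potency against angiotensin II stimulated AT1 response.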 Type of assay: functional.

The target in assay [4] is Kappa-type opioid receptor (Homo sapiens, UniProt P41145). Type of assay: functional.
Chain of Kappa-type opioid receptor (P41145 whole entry): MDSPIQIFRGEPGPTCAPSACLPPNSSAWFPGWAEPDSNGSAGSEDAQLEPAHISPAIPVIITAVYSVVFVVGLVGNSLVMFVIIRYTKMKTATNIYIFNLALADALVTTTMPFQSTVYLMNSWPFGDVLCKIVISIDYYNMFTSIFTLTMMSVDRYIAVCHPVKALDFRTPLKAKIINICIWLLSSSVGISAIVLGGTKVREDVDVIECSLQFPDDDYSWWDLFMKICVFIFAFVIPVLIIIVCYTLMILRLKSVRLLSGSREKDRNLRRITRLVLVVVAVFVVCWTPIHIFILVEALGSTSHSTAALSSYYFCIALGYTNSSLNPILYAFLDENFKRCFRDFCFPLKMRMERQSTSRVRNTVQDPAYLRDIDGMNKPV
Assay [5] is described as follows: HEK-293T viability loss after treatment – luminescence, T-cell screen hits, cytotoxicity control for TCR NF-kB inhibitor project, dose response (AID 489026).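 Further: cells exposed to compound about 14 hours before the viability readout.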 Type of assay: functional, cell-based.
The target of assay [6] is Dual specificity protein kinase CLK2 (Homo sapiens, UniProt P49760). It is filed as functional.
Assay [7] has as its target Protein kinase C zeta type (Homo sapiens, UniProt Q05513). It is filed as functional.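 Further: measured as one member of a broad kinase profiling panel.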
Assay [8] has as its target cGMP-dependent protein kinase 1 (Homo sapiens, UniProt Q13976). It is filed as functional.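 Further: value from a kinome panel screen with PRKG1 as the panel member.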
Assay [9] concerns the target Serine/threonine-protein kinase TBK1 (Homo sapiens, UniProt Q9UHD2). The assay is described as follows: Navigating the Kinome. Panel member name: TBK1. It is filed as functional.
For assay [10], the target named is ALK tyrosine kinase receptor (Homo sapiens, UniProt Q9UM73). It is filed as functional.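 Further: ALK tested as one member of a kinase panel screen.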
The target in assay [11] is Proto-oncogene tyrosine-protein kinase receptor Ret (Homo sapiens, UniProt P07949). It is filed as functional.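 Further: measured within a kinome-wide profiling panel, RET as the panel member.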
Assay [12] addresses Ribosomal protein S6 kinase beta-1 (Homo sapiens, UniProt P23443). It is filed as functional.
Assay [13] deals with Testis-specific serine/threonine-protein kinase 2 (Homo sapiens, UniProt Q96PF2). It is filed as functional.
Assay [14] addresses Tyrosine-protein kinase Lck (Homo sapiens, UniProt P06239). Type of assay: functional.
Assay [15] addresses Casein kinase II subunit alpha (Homo sapiens, UniProt P68400). Type of assay: functional.
The target of assay [16] is Tyrosine-protein kinase JAK3 (Homo sapiens, UniProt P52333). It is filed as functional.
Another assay deals with Insulin receptor (Homo sapiens, UniProt P06213). Type of assay: functional.
The target of assay [17] is Non-receptor tyrosine-protein kinase TYK2 (Homo sapiens, UniProt P29597). It is filed as functional.
For assay [18], the target named is Protein kinase C gamma type (Homo sapiens, UniProt P05129). It is filed as functional.
Assay [19] concerns the target Dual specificity tyrosine-phosphorylation-regulated kinase 3 (Homo sapiens, UniProt O43781). Type of assay: functional.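 Further: measured as one member of a broad kinase panel.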
Assay [20] concerns the target Hepatocyte growth factor receptor (Homo sapiens, UniProt P08581). It is filed as functional.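 Further: kinase panel profiling across the kinome, with MET as the panel member.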
The target of assay [21] is Receptor-type tyrosine-protein kinase FLT3 (Homo sapiens, UniProt P36888). Type of assay: functional.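 Further: FLT3 was tested as one member of a kinome-wide kinase panel.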
Assay [22] has as its target Casein kinase I isoform delta (Homo sapiens, UniProt P48730). Type of assay: functional.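 Further: measured as one member (CSNK1D) of a kinome panel.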
The next assay concerns the target Misshapen-like kinase 1 (Homo sapiens, UniProt Q8N4C8). Type of assay: functional.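 Further: kinome panel screen with MINK as the panel member.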
For assay [23], the target named is Dual specificity tyrosine-phosphorylation-regulated kinase 4 (Homo sapiens, UniProt Q9NR20). It is filed as functional.
Assay [24] deals with Fibroblast growth factor receptor 3 (Homo sapiens, UniProt P22607). Type of assay: functional.
Chain of Fibroblast growth factor receptor 3 (P22607 whole entry): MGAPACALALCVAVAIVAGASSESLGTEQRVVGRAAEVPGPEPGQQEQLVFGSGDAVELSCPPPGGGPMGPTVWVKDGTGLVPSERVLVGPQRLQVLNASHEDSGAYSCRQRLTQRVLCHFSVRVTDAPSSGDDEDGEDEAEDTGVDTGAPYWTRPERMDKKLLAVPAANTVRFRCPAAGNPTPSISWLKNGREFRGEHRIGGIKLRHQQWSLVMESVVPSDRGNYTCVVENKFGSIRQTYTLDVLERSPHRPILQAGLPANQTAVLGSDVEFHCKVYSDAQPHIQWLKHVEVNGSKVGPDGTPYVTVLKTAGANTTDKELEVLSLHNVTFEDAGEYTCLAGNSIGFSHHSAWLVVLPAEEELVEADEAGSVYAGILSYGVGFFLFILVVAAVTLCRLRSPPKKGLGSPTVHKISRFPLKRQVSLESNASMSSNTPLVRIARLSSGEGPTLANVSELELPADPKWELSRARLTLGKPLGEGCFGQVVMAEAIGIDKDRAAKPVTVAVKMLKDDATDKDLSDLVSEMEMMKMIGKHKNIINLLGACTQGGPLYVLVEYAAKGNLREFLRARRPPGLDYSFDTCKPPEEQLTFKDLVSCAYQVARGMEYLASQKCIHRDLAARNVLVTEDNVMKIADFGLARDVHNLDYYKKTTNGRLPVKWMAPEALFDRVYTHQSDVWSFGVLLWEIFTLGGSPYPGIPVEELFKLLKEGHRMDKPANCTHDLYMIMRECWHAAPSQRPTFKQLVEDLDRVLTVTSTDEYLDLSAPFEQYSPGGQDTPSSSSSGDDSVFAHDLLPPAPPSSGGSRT
Assay [25] concerns the target Serine/threonine-protein kinase PLK1 (Homo sapiens, UniProt P53350). Type of assay: functional.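 Further: PLK1 measured as one member of a kinome-wide profiling panel.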
Assay [26] addresses Macrophage colony-stimulating factor 1 receptor (Homo sapiens, UniProt P07333). Type of assay: functional.
Assay [27] in a line: Luminescence-based cell-based high throughput dose response assay to identify activators of the DAF-12 from the parasite S. stercoralis (ssDAF-12). Type of assay: functional.
Assay [28] addresses T2, Oxysterols receptor LXR-beta (Homo sapiens, UniProt P55055).
T2 sequence (P55055 whole entry): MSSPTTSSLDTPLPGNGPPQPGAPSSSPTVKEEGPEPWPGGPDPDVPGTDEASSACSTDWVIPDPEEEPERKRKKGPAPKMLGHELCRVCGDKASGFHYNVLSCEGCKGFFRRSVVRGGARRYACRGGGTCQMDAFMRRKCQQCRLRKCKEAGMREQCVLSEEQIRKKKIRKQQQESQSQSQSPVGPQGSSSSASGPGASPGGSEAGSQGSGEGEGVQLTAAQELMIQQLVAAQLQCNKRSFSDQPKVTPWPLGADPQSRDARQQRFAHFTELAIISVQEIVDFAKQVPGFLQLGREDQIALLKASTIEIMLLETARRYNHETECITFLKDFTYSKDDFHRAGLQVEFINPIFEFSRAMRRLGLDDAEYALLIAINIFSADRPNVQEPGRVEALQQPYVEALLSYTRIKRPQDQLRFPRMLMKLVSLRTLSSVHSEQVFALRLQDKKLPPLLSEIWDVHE
The assay is described as follows: LXR agonists, Gal4 luciferase reporter, dose response, counter-screen for ssDAF-12 agonist project, cell-based, luminescence, HEK293, S. stercoralis campaign (AID 720737). Type of assay: functional. Conditions: read-out: IC50 (the source's name).

Assay [29] is described as follows: blockers of bursicon-stimulated LGR2 cAMP reporter – cell-based, HEK293, CRE-luciferase reporter, cherry pick, set 2, dose response (AID 743343).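 Further: transfected cells were stimulated with diluted bursicon conditioned medium after compound addition.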 Type of assay: functional.
A short description of assay [30]: blockade of melanocortin 4 receptor signaling – cell-based, plate reader, cherry pick, counter-screen for LGR2 antagonist project, dose response (AID 743444).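 Further: transfected HEK 293 cells stimulated with alpha-MSH peptide; potency of inhibitors of the alpha-MSH evoked signal.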 It is filed as functional.
The target of assay [31] is Glutathione-S-transferase (Schistosoma japonicum, UniProt Q26513). Kind of assay: GST-antibody interaction or FRET quenching – biochemical, TR-FRET, artefact control for Vif-APOBEC3G degradation inhibitor project, dose response (AID 1117362). Type of assay: functional.
Chain of Glutathione-S-transferase (Q26513 whole entry): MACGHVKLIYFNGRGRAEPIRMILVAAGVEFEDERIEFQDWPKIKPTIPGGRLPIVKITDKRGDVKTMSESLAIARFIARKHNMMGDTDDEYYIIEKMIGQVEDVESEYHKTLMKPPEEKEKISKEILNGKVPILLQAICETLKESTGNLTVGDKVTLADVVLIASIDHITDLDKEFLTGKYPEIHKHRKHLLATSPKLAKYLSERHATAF

Structures are written as SMILES. The source made the active and inactive calls.

Chain of Serine/threonine-protein kinase TBK1 (Q9UHD2 whole entry): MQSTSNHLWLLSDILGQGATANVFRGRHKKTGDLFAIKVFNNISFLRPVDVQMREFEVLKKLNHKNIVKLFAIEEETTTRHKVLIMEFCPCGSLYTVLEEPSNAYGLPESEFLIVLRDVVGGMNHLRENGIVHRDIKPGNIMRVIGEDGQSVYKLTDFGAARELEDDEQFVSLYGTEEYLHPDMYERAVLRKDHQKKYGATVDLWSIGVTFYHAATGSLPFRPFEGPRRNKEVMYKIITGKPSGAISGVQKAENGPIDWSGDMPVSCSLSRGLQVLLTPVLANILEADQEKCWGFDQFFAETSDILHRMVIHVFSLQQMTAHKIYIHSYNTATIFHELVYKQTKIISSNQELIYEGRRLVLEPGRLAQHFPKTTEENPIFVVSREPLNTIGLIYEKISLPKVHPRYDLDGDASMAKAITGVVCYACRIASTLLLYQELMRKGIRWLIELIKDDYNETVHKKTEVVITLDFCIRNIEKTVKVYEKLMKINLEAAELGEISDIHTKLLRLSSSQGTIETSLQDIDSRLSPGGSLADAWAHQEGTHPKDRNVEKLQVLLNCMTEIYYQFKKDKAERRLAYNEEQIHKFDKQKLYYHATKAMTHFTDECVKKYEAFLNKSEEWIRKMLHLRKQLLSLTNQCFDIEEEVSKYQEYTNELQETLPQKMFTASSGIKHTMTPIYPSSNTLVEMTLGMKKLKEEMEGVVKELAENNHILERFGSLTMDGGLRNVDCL
Chain of Casein kinase II subunit alpha (P68400 whole entry): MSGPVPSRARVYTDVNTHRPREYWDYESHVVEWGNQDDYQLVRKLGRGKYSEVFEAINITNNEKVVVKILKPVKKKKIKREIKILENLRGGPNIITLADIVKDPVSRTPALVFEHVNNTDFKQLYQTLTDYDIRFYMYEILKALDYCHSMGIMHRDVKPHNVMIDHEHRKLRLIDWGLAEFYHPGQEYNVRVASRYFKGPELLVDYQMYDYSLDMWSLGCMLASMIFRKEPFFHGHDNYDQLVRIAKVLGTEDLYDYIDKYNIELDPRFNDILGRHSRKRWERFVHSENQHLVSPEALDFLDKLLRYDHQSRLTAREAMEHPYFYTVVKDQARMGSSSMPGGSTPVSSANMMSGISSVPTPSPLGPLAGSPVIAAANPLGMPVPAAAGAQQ
Chain of Dual specificity tyrosine-phosphorylation-regulated kinase 3 (O43781 whole entry): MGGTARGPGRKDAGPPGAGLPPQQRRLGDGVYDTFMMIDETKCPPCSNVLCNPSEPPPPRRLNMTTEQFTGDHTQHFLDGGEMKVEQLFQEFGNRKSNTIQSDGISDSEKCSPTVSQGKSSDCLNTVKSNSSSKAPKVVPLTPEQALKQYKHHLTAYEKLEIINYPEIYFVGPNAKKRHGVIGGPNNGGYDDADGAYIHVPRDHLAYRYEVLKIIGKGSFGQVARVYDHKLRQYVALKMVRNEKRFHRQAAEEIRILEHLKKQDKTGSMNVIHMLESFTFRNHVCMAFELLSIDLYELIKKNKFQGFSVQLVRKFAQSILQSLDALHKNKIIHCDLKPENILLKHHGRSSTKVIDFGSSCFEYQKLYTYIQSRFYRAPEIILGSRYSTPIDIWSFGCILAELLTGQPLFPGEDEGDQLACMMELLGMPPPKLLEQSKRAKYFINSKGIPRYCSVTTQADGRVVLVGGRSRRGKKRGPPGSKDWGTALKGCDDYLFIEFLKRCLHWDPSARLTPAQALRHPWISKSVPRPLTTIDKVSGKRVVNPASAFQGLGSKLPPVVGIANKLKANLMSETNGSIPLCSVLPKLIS
Chain of Ribosomal protein S6 kinase beta-1 (P23443 whole entry): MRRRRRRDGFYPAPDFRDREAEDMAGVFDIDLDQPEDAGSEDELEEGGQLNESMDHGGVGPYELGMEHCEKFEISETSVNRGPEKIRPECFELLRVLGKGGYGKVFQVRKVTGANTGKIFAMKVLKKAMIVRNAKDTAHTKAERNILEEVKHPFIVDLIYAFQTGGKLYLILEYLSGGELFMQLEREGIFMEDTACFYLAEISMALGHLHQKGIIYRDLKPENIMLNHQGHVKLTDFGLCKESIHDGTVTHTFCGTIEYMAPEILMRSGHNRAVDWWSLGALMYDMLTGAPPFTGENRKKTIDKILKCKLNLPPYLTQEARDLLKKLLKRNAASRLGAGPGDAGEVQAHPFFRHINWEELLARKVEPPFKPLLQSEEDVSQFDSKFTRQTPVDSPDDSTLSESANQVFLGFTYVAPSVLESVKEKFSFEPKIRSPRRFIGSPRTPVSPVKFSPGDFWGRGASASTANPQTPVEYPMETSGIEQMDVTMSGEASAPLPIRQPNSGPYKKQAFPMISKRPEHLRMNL
Chain of Misshapen-like kinase 1 (Q8N4C8 whole entry): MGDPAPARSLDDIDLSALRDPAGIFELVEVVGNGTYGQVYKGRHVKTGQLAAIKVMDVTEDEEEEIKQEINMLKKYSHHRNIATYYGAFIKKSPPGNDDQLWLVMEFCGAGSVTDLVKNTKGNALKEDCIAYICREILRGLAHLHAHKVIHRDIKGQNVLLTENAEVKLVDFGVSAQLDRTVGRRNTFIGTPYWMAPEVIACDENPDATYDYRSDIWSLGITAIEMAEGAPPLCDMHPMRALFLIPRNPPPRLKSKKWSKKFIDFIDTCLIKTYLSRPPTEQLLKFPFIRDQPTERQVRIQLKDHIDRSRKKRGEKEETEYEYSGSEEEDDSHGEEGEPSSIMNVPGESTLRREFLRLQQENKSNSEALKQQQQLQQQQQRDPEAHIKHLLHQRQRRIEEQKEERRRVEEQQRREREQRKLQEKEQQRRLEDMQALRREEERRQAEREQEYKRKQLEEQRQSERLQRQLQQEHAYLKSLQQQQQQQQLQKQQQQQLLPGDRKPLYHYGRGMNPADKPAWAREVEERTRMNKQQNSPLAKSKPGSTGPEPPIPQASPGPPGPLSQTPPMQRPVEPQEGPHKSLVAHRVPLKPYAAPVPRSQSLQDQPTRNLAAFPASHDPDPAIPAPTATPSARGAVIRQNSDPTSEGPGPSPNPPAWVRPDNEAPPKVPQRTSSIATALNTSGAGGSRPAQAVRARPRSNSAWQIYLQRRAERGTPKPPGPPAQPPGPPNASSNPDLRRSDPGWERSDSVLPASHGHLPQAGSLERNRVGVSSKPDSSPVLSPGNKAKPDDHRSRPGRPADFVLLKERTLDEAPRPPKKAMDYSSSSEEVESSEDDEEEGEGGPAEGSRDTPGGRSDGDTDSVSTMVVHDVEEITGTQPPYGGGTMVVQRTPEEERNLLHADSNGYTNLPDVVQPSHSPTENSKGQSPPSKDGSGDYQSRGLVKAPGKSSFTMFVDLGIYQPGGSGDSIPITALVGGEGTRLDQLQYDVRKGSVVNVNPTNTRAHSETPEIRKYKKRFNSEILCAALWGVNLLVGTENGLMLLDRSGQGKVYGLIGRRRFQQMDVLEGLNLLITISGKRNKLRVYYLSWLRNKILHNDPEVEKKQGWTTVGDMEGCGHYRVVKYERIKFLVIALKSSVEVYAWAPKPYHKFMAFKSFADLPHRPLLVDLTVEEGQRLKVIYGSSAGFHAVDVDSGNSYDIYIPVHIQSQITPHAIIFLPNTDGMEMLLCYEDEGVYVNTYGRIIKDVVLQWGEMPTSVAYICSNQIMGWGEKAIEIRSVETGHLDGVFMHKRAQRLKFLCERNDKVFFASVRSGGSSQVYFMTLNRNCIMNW

Turning to `Cc1ccc(C(=O)c2c(C)oc3c2C(=O)C(=O)c2ccccc2-3)cc1`, the IC50 in [1] is 6.83 µM (active).

With `Cc1ccc(Nc2cc(C)nn2-c2nc(C)cc(O)n2)cc1`, the IC50 in assay [2] was > 32 µM (inactive); in assay [3] it was 1.77 µM (active); in [4] it was 0.747 µM (active); in assay [5] it was > 80 µM (inactive). The EC50 in “cells” is 0.074 µM (active).

As for `O=C1NC(=S)SC1=C1C(=O)Nc2ccc(Br)cc21`, the Ki in [6] is 7.94 µM (active); in [7], > 7.94 µM (inactive); in assay [8], > 2 µM (inactive); in [9], > 1.58 µM (inactive); in assay [10], > 1.26 µM (inactive); in assay [11], > 1.26 µM (inactive). Also, the Ki in assay [12] is 6.31 µM (active); in [13] it was > 1.58 µM (inactive); in assay [14] it was > 2.51 µM (inactive); in [15], 0.631 µM (active); in assay [16], > 1.58 µM (inactive); at Insulin receptor it was > 5.01 µM (inactive). The Ki was > 2 µM (inactive) in assay [17]; > 7.94 µM (inactive) in assay [18]; > 6.31 µM (inactive) in assay [19]; > 3.16 µM (inactive) in [20]; 0.158 µM (active) in [21]; 5.01 µM (active) in [22]. Besides, the Ki on Misshapen-like kinase 1 is > 7.94 µM (inactive); in assay [23] it was > 7.94 µM (inactive); in [24], > 2 µM (inactive); in assay [25] it was 6.31 µM (active); in assay [26], > 2.51 µM (inactive).

For the compound `Cc1cnc(NC(=O)c2sc3ccccc3c2Cl)s1`, in [27], the IC50 is > 67.5 µM (inactive). The EC50 in assay [28] is > 67.5 µM (inactive). In addition, the AC50 is 3.07 µM (active) in assay [29] and 3.25 µM (active) in assay [30].

Regarding `CN(C)c1ncc(C2=C(Cl)C(=O)C(N3CCCC3)=C(Cl)C2=O)s1`, the IC50 in assay [31] was > 100 µM (active).
